Assay results as given in patent US20090088482A1, “Compositions and Methods For Treating Heart Failure” (The Trustees Of Columbia University In The City New York, priority 2003, published 2009).
Structures can show the parent of a compound that is named as a salt.

Columns and labels:
[1] = CHF patients, 8 mg b.i.d., three weeks; cited from earlier work
[2] = Cardiopulmonary exercise testing in a patient with NYHA Class III CHF treated with clenbuterol; format: in vivo, human; details: 40 mcg b.i.d., six weeks
Description: A patient with New York Heart Association Class III CHF with an ICD, currently taking a heart failure medical regimen, including carvedilol (a non-selective beta-blocking agent), lisinopril (an ACE inhibitor), digoxin and spiranolactone, has shortness of breath on moderate exertion and a peak oxygen consumption of 14 ml/kg/min during cardiopulmonary exercising testing.

Row | Compound | quadriceps bulk, muscle strength or fatigue, exercise capacity, symptom assessment scores [1] | tolerability of dose [2]
1 | CC(C)(C)NCC(O)c1ccc(O)c(CO)c1 (centres unmarked) [salbutamol] | no change | 
2 | CC(C)(C)NCC(O)c1cc(Cl)c(N)c(Cl)c1 (centres unmarked) [clenbuterol hydrochloride, Clenbuterol hydrochloride] |  | well-tolerated
